As usually defined, the EC50 is the concentration that produces a half-maximal response.

The test deals with T1, Apelin receptor (Homo sapiens, UniProt P35414).
T1 sequence (P35414 whole entry): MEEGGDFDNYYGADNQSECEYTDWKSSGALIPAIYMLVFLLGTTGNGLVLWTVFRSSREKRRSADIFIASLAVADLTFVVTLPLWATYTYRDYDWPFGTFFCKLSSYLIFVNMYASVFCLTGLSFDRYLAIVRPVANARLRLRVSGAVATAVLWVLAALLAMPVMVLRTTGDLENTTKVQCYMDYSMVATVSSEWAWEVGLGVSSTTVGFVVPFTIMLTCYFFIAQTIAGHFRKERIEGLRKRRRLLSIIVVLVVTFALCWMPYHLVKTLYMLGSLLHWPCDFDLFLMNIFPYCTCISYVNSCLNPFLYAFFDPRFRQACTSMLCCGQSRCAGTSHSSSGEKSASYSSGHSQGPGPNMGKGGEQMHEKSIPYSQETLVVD
Nature of the test: GTPγS Binding: The human APJ receptor was cloned by polymerase chain reaction and the gene encoding the receptor was subcloned in pFLAG-CMV-3 expression vector (Sigma, Saint Louis, Mo. USA) in-house at Amgen. A GTPγS binding assay was performed on membranes prepared from CHO cells stably expressing human APJ receptor. The optimum experimental conditions for the concentrations of GDP, MgCl2, and NaCl in the assay buffer were initially determined. The assay was performed in assay buffer [20 mM HEPES, pH 7.5, 5 mM MgCl2, and 0.1% (w/v) BSA with 200 mM NaCl, 3 μM GDP] and membranes expressing human APJ receptor/well along with WGA PS beads. The reaction was initiated by addition of 0.2 nM [35S]GTPγS in the absence or presence of various ligands and incubated at RT for 90 min. Nonspecific binding was determined in the presence of 100 μM GTPγS and was always less than 0.2% of total binding. A general note: GTPγS resists hydrolysis and so accumulates on activated G proteins.
Regarding `COc1cccc(OC)c1-n1c(NS(=O)(=O)[C@H]2C[C@@H](O)CN(c3cc(C#N)ccn3)C2)nnc1-c1ccc(C)o1` (single isomer, unassigned), the EC50 worked out at 170 pM. With `COc1cc[nH]c(=O)c1-n1c(NS(=O)(=O)[C@@H](C)[C@H](C)c2ncc(C)cn2)nnc1-c1ccc(C)o1` (single isomer, unassigned; form 1) the figure was 750 pM; with `COc1cc[nH]c(=O)c1-n1c(NS(=O)(=O)[C@@H](C)[C@H](C)c2ncc(F)cn2)nnc1-c1ccc(C)o1` (single isomer, unassigned; form 1), 670 pM. With `COc1cc[nH]c(=O)c1-n1c(NS(=O)(=O)[C@@H](C)[C@H](C)c2ncc(C)cn2)nnc1-c1ccc(C)o1` (single isomer, unassigned; form 2) the figure was 37000 pM; with `COc1cc[nH]c(=O)c1-n1c(NS(=O)(=O)[C@@H](C)[C@H](C)c2ncc(F)cn2)nnc1-c1ccc(C)o1` (single isomer, unassigned; form 2), 51000 pM.

These data come from ChEMBL document CHEMBL5727878, “Triazole furan compounds as agonists of the APJ receptor” (2020).
